Source: patent US8324245B2, “Quinoline derivative and quinazoline derivative inhibiting self-phosphorylation of hepatocytus proliferator receptor, and medicinal composition containing the same” (Kyowa Hakko Kirin Co., Ltd., priority 2001, dated 2012)

Columns and labels:
[1] = test system: Human gastric cancer cells (MKN 45); assay: Tumor growth inhibitory activity against various human tumor cells in nude mice: MKN 45; format: in vivo; details: Mus musculus, MKN-45, po, 120 h, MKN45, Oral, 5 days; read-out: TGIR
Procedure: (§1) Human gastric cancer cells (MKN 45) (obtained from RIKEN), human brain tumor cells (U87MG) (obtained from ATCC), human pancreatic cancer cells (KP4) (obtained from RIKEN), human pancreatic cancer cells (SUIT-2) (obtained from National Kyushu Cancer Center), and human signet-ring type gastric cancer cells (NUGC-4) (obtained from RIKEN), or human lung cancer cells (LC6) (obtained from Central Laboratories for Experimental Animals) were transplanted into nude mice. […] The test compound suspended in 0.5% methylcellulose was orally administered once or twice a day for 5 days. Only 0.5% methylcellulose was administered to the control group in the manner as in the test groups. Alternatively, the test compound dissolved in physiological saline (with a 1 N aqueous hydrochloric acid solution added thereto) was intraveneously injected once a day for 5 days, and only physiological saline (with a 1 N aqueous hydrochloric acid solution added thereto) was administered to the control group in the same manner as in the test groups. The tumor growth inhibition rate (TGIR) was calculated as follows: The tumor growth inhibition rate (TGIR)=(1−TX/CX)×100 wherein CX represents the relative tumor volume at the 5th day for the control group when the tumor volume at the day of the start of the administration was presumed to be 1; and TX represents the relative tumor volume for test compound administration groups.

[2] = test system: human lung cancer cells (LC6); assay: Tumor growth inhibitory activity against various human tumor cells in nude mice: LC6; format: in vivo; details: LC6, Oral, 30 × 2 mg/kg × number of times, 5 days
Procedure: as §1

[3] = test system: Human brain tumor cells (U87MG); assay: Tumor growth inhibitory activity against various human tumor cells in nude mice: U87MG; format: in vivo; details: Oral, 30 × 2 mg/kg × number of times, 5 days
Procedure: as §1

[4] = target: T1, met (HGF receptor) in human gastric cancer cells MKN45 (Homo sapiens, UniProt P08581); assay: Inhibitory activity against met-autophosphorylation using ELISA method (2), MKN45 cells, HGF-independent; format: cell-based
T1 construct: endogenous in cells; host or cells: MKN45 human gastric cancer cells
T1 sequence (P08581 25-1390): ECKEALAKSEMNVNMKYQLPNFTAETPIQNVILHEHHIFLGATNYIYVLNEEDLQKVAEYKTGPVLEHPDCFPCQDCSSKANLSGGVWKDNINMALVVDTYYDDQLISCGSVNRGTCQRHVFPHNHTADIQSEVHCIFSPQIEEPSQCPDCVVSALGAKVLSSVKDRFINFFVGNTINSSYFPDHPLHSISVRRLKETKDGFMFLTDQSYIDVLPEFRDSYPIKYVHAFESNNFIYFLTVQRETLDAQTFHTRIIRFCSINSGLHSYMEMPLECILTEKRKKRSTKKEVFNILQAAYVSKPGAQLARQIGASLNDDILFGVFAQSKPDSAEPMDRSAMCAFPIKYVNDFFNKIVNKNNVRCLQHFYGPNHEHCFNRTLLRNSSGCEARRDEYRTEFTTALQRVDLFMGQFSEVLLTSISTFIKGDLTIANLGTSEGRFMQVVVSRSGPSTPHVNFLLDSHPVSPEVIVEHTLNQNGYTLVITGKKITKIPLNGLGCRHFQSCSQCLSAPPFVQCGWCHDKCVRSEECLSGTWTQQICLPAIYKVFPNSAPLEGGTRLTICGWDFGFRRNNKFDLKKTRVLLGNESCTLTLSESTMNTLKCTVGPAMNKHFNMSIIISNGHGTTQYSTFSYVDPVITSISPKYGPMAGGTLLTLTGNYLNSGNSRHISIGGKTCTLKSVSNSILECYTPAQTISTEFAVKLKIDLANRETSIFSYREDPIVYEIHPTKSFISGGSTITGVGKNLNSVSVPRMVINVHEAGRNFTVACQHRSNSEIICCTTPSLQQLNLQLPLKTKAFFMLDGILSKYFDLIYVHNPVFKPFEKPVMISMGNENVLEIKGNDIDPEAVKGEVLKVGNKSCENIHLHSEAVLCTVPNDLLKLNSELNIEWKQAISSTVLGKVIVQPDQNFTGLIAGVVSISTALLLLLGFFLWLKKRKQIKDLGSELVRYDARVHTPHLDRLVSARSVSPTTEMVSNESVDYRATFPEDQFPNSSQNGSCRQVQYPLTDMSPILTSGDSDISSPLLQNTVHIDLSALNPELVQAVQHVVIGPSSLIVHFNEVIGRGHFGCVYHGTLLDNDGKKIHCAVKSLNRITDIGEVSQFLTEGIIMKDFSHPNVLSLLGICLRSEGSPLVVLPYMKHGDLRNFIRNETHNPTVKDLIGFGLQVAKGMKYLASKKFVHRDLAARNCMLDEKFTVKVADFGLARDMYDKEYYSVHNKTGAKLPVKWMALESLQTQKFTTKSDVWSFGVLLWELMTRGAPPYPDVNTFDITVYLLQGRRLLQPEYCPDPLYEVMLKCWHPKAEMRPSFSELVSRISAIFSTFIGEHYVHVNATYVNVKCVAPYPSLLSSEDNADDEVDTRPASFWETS
How it was run: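 MKN45 cells, 3×10^4 per well in RPMI with 0.1% FCS overnight, were exposed to compound in DMSO for 1 h at 37 °C without HGF. Lysates were captured on anti-phosphotyrosine (PY20) plates, Met detected with anti-Met and peroxidase secondary antibody, absorbance at 450 nm.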

[5] = target: T2, met (HGF receptor) in human epidermal cancer cells A431 (Homo sapiens, UniProt P08581); assay: Inhibitory activity against met-autophosphorylation using ELISA method (1), HGF-stimulated A431 cells; format: cell-based; details: HGF 50 ng/ml stimulation, read-out: IC50 (concentration necessary for inhibiting 50% of met phosphorylation)
T2 construct: endogenous in cells; host or cells: A431 human epidermal cancer cells
T2 sequence (P08581 25-1390): as above
Procedure: Human epidermal cancer cells A431 were cultured in an RPMI 1640 medium containing 10% fetal calf serum (purchased from GIBCO BRL) within a 5% carbon dioxide incubator until 50 to 90% confluent. Cells were cultured with RPMI medium containing 0.1% fetal calf serum in 96-well flat-bottom plate in an amount of 3×10^4 per well, and were incubated at 37° C. overnight. The medium was then replaced by a fresh RPMI medium containing 0.1% fetal calf serum. A solution of the test compound in dimethyl sulfoxide was added to each well, and the cells were incubated at 37° C. for additional one hr. A human recombinant hepatocyte growth factor (hereinafter abbreviated to “HGF”) was added to a final concentration of 50 ng/ml, and the stimulation of cells was carried out at 37° C. for 5 min. The medium was removed, the cells were washed with phosphate buffered saline (pH 7.4), and 50 μl of lysis buffer (20 mM HEPES (pH 7.4), 150 mM NaCl, 0.2% Triton X-100, 10% glycerol, 5 mM sodium orthovanadylate, 5 mM disodium ethylenediaminetetraacetate, and 2 mM Na4P2O7) was then added thereto. […]
Separately, phosphate buffered saline (50 μl, pH 7.4) containing 5 μg/ml of anti-phospho-tyrosine antibody (PY20; purchased from Transduction Laboratories) was added to a microplate for ELISA (Maxisorp; purchased from NUNC), followed by gentle agitation at 4° C. overnight to coat the surface of the wells with the antibody. […] After washing, the whole quantity of the cell extract was transferred to the wells, and the plate was then allowed to incubate at 4° C. overnight. […] After a suitable level of color development, a reaction termination solution was added to stop the reaction, and the absorbance at 450 nm was measured with a microplate reader. The met-phosphorylation inhibitory activity for each well was determined by presuming the absorbance with the addition of HGF and the vehicle to compounds to be 0% met-phosphorylation inhibitory activity and the absorbance with the addition of the vehicle to compounds and without HGF to be 100% met phosphorylation inhibitory activity. […]

[6] = test system: human signet-ring type gastric cancer cells (NUGC-4); assay: Tumor growth inhibitory activity against various human tumor cells in nude mice: NUGC-4; format: in vivo; details: NUGC-4, Oral, 30 × 2 mg/kg × number of times, 5 days
Procedure: as §1, with “Alternatively, the test compound dissolved in physiological saline (with a 1 N aqueous hydrochloric acid solution added thereto) was intraveneously injected once a day for 5 days, and only physiological saline (with a 1 N aqueous hydrochloric acid solution added thereto) was administered to the control group in the same manner as in the test groups.” left out

[7] = test system: human pancreatic cancer cells (KP4); assay: Tumor growth inhibitory activity against various human tumor cells in nude mice: KP4; format: in vivo; details: KP-4, Oral, 5 days
Procedure: as §1

[8] = test system: Human gastric cancer cells (MKN 45); assay: Tumor growth inhibitory activity against human gastric cancer cells (MKN 45) in nude mice; format: in vivo; details: oral, twice a day for 5 days
Procedure: Human gastric cancer cells (MKN 45) were transplanted into nude mice. […] The test compound suspended in 0.5% methylcellulose was orally administered twice a day for 5 days.
(§2) Only 0.5% methylcellulose was administered to the control group in the manner as in the test groups. The tumor growth inhibition rate (TGIR) was calculated as follows: The tumor growth inhibition rate (TGIR)=(1−TX/CX)×100 wherein CX represents the relative tumor volume at day X for the control group when the tumor volume at the day of the start of the administration was presumed to be 1; and TX represents the relative tumor volume for test compound administration groups.

[9] = test system: Human brain tumor cells (U87MG); assay: Tumor growth inhibitory activity against human brain tumor cells (U87MG) in nude mice; format: in vivo; details: oral, twice a day for 5 days
Procedure: Human brain tumor cells (U87MG) were transplanted into nude mice. […] The test compound suspended in 0.5% methylcellulose was orally administered twice a day for 5 days.
as §2

[10] = test system: human pancreatic cancer cells (SUIT-2); assay: Tumor growth inhibitory activity against various human tumor cells in nude mice: SUIT-2; format: in vivo; details: SUIT-2, Oral, 25 × 1 mg/kg × number of times, 5 days
Procedure: as §1, with “Alternatively, the test compound dissolved in physiological saline (with a 1 N aqueous hydrochloric acid solution added thereto) was intraveneously injected once a day for 5 days, and only physiological saline (with a 1 N aqueous hydrochloric acid solution added thereto) was administered to the control group in the same manner as in the test groups.” left out

SMILES	inhibition in vivo at 30 mg/kg [1] [%]	TGIR [2] [%]	TGIR [3] [%]	IC50 [4] [nM]	IC50 [5] [nM]	TGIR [6] [%]	TGIR ([7]; 30 × 2 mg/kg × number of times) [%]	TGIR (tumor growth inhibition rate) ([8]; dose 10 mg/kg/time) [%]	TGIR (tumor growth inhibition rate) ([8]; dose 30 mg/kg/time) [%]	TGIR ([9]; 10 mg/kg/time) [%]	TGIR ([9]; 30 mg/kg/time) [%]	TGIR ([7]; 12.5 × 1 mg/kg × number of times) [%]	TGIR ([7]; 25 × 1 mg/kg × number of times) [%]	TGIR ([7]; 50 × 1 mg/kg × number of times) [%]	TGIR [10] [%]	TGIR ([9]; 100 mg/kg/time) [%]
COc1cc2c(Oc3ccc(NC(=O)NC(=O)Cc4ccc(F)cc4)c(F)c3)ccnc2cc1OCCCN1CCOCC1 [Example 286, 1-{2-Fluoro-4-[6-methoxy-7-(3-morpholin-4-yl-propoxy)-quinolin-4-yloxy]-phenyl}-3-[2-(4-fluoro-phenyl)-acetyl]-urea]	64	37	66	29.3												
COc1cc2nccc(Oc3ccc(NC(=S)NC(=O)Cc4ccc(F)cc4)cc3F)c2cc1OC [Example 2, N-[4-(6,7-dimethoxyquinolin-4-yloxy)-3-fluoro-phenyl]-N′-[2-(4-fluorophenyl)acetyl]thiourea]		27		18.1	11.8	75	54	31	65	38	61					
COc1cc2c(Oc3ccc(NC(=S)NC(=O)Cc4ccc(F)cc4)cc3F)ccnc2cc1OCC(O)CN1CCOCC1 (centres unmarked) [Example 313, 1-{3-Fluoro-4-[7-(2-hydroxy-3-morpholin-4-yl-propoxy)-6-methoxy-quinolin-4-yloxy]-phenyl}-3-[2-(4-fluorophenyl)-acetyl]-thiourea]				21.1								34	45	48	28	
COc1cc2c(Oc3ccc(NC(=O)NC(=O)Cc4ccccc4)cc3F)ccnc2cc1OCCCN1CCOCC1 [Example 11, 1-{3-fluoro-4-[6-methoxy-7-(3-morpholin-4-yl-propoxy)quinolin-4-yloxy]phenyl}-3-phenylacetylurea]	63	26	62	20.2	58.1			23	52							
COc1cc2nccc(Oc3ccc(NC(=O)NC(=O)Cc4ccc(F)cc4)c(F)c3)c2cc1OC [Example 3, N-[4-(6,7-dimethoxyquinolin-4-yloxy)-2-fluoro-phenyl]-N′-[2-(4-fluorophenyl)acetyl]urea]		18		30.4	19.7	71	31	24	52		51					60
COc1cc2c(Oc3ccc(NC(=S)NC(=O)Cc4ccccc4)cc3F)ccnc2cc1OCCCN1CCOCC1 [Example 268, N-{3-fluoro-4-[6-methoxy-7-(3-morpholin-4-yl-propoxy)quinolin-4-yloxy]phenyl}-N′-phenylacetyl-thiourea]		35	74	22.8					81							
COc1cc2c(Oc3ccc(NC(=S)NC(=O)Cc4ccccc4Cl)cc3F)ccnc2cc1OCCCN1CCOCC1 [Example 285, 1-[2-(2-Chloro-phenyl)-acetyl]-3-{3-fluoro-4-[6-methoxy-7-(3-morpholin-4-yl-propoxy)-quinolin-4-yloxy]-phenyl}-thiourea]	66	48		75.3												
